Numbers after ± are expanded uncertainties.
Details: Surface laser light scattering (SLLS); for viscosity: Liquid

CCCCCC [hexane]
surface tension liquid-gas (283.15 K): 19.28 ± 0.22 mN/m
viscosity (283.15 K): 0.3495 ± 0.016 mPa·s
surface tension liquid-gas (293.15 K): 18.22 ± 0.17 mN/m
viscosity (293.15 K): 0.3127 ± 0.015 mPa·s
surface tension liquid-gas (303.15 K): 17.34 ± 0.19 mN/m
viscosity (303.15 K): 0.2809 ± 0.014 mPa·s
surface tension liquid-gas (313.15 K): 16.22 ± 0.21 mN/m
viscosity (313.15 K): 0.2546 ± 0.014 mPa·s
surface tension liquid-gas (323.15 K): 15.31 ± 0.14 mN/m
viscosity (323.15 K): 0.234 ± 0.013 mPa·s
surface tension liquid-gas (348.15 K): 12.94 ± 0.12 mN/m
viscosity (348.15 K): 0.1905 ± 0.012 mPa·s
surface tension liquid-gas (373.15 K): 10.53 ± 0.1 mN/m
viscosity (373.15 K): 0.155 ± 0.011 mPa·s
surface tension liquid-gas (398.15 K): 8.21 ± 0.08 mN/m
viscosity (398.15 K): 0.1268 ± 0.011 mPa·s
surface tension liquid-gas (423.15 K): 5.98 ± 0.06 mN/m
viscosity (423.15 K): 0.1026 ± 0.01 mPa·s
surface tension liquid-gas (448.15 K): 3.75 ± 0.07 mN/m
viscosity (448.15 K): 0.0837 ± 0.0097 mPa·s
surface tension liquid-gas (473.15 K): 1.89 ± 0.03 mN/m
viscosity (473.15 K): 0.0655 ± 0.0093 mPa·s

CCCCCCCC [octane]
surface tension liquid-gas (283.15 K): 22.25 ± 0.19 mN/m
viscosity (283.15 K): 0.6247 ± 0.023 mPa·s
surface tension liquid-gas (293.15 K): 21.31 ± 0.24 mN/m
viscosity (293.15 K): 0.5523 ± 0.021 mPa·s
surface tension liquid-gas (303.15 K): 20.53 ± 0.23 mN/m
viscosity (303.15 K): 0.4828 ± 0.019 mPa·s
surface tension liquid-gas (313.15 K): 19.45 ± 0.22 mN/m
viscosity (313.15 K): 0.432 ± 0.018 mPa·s
surface tension liquid-gas (323.15 K): 18.64 ± 0.21 mN/m
viscosity (323.15 K): 0.387 ± 0.017 mPa·s
surface tension liquid-gas (348.15 K): 16.37 ± 0.21 mN/m
viscosity (348.15 K): 0.3079 ± 0.015 mPa·s
surface tension liquid-gas (373.15 K): 14 ± 0.14 mN/m
viscosity (373.15 K): 0.2487 ± 0.014 mPa·s
surface tension liquid-gas (398.15 K): 11.9 ± 0.12 mN/m
viscosity (398.15 K): 0.2028 ± 0.013 mPa·s
surface tension liquid-gas (423.15 K): 9.81 ± 0.15 mN/m
viscosity (423.15 K): 0.1665 ± 0.012 mPa·s
surface tension liquid-gas (448.15 K): 7.88 ± 0.07 mN/m
viscosity (448.15 K): 0.1393 ± 0.011 mPa·s
surface tension liquid-gas (473.15 K): 5.82 ± 0.1 mN/m
viscosity (473.15 K): 0.1168 ± 0.01 mPa·s
surface tension liquid-gas (498.15 K): 4 ± 0.13 mN/m
viscosity (498.15 K): 0.0947 ± 0.01 mPa·s
surface tension liquid-gas (523.15 K): 2.32 ± 0.06 mN/m
viscosity (523.15 K): 0.0755 ± 0.0095 mPa·s

CCCCCCCCCC [decane]
surface tension liquid-gas (283.15 K): 23.94 ± 0.52 mN/m
viscosity (283.15 K): 1.077 ± 0.035 mPa·s
surface tension liquid-gas (293.15 K): 23.05 ± 0.57 mN/m
viscosity (293.15 K): 0.9005 ± 0.029 mPa·s
surface tension liquid-gas (303.15 K): 22.39 ± 0.48 mN/m
viscosity (303.15 K): 0.79 ± 0.026 mPa·s
surface tension liquid-gas (313.15 K): 21.43 ± 0.46 mN/m
viscosity (313.15 K): 0.6924 ± 0.025 mPa·s
surface tension liquid-gas (323.15 K): 20.61 ± 0.44 mN/m
viscosity (323.15 K): 0.6091 ± 0.022 mPa·s
surface tension liquid-gas (348.15 K): 18.75 ± 0.39 mN/m
viscosity (348.15 K): 0.4636 ± 0.019 mPa·s
surface tension liquid-gas (373.15 K): 16.52 ± 0.36 mN/m
viscosity (373.15 K): 0.3614 ± 0.016 mPa·s
surface tension liquid-gas (398.15 K): 14.38 ± 0.31 mN/m
viscosity (398.15 K): 0.2895 ± 0.015 mPa·s
surface tension liquid-gas (423.15 K): 12.4 ± 0.32 mN/m
viscosity (423.15 K): 0.2403 ± 0.013 mPa·s
surface tension liquid-gas (448.15 K): 10.29 ± 0.22 mN/m
viscosity (448.15 K): 0.1978 ± 0.012 mPa·s
surface tension liquid-gas (473.15 K): 8.52 ± 0.23 mN/m
viscosity (473.15 K): 0.1677 ± 0.012 mPa·s
surface tension liquid-gas (498.15 K): 6.58 ± 0.16 mN/m
viscosity (498.15 K): 0.1366 ± 0.011 mPa·s
surface tension liquid-gas (523.15 K): 4.97 ± 0.12 mN/m
viscosity (523.15 K): 0.1138 ± 0.01 mPa·s
surface tension liquid-gas (548.15 K): 3.43 ± 0.1 mN/m
viscosity (548.15 K): 0.0974 ± 0.01 mPa·s
surface tension liquid-gas (573.15 K): 1.94 ± 0.09 mN/m
viscosity (573.15 K): 0.0762 ± 0.0098 mPa·s

CCCCCCCCCCCCCCCC [hexadecane]
surface tension liquid-gas (293.15 K): 27.38 ± 0.64 mN/m
viscosity (293.15 K): 3.486 ± 0.1 mPa·s
surface tension liquid-gas (303.15 K): 26.6 ± 0.7 mN/m
viscosity (303.15 K): 2.772 ± 0.095 mPa·s
surface tension liquid-gas (313.15 K): 25.56 ± 0.31 mN/m
viscosity (313.15 K): 2.261 ± 0.081 mPa·s
surface tension liquid-gas (323.15 K): 24.28 ± 0.41 mN/m
viscosity (323.15 K): 1.84 ± 0.061 mPa·s
surface tension liquid-gas (348.15 K): 22.19 ± 0.31 mN/m
viscosity (348.15 K): 1.236 ± 0.047 mPa·s
surface tension liquid-gas (373.15 K): 20.31 ± 0.23 mN/m
viscosity (373.15 K): 0.8927 ± 0.03 mPa·s
surface tension liquid-gas (398.15 K): 18.54 ± 0.14 mN/m
viscosity (398.15 K): 0.6788 ± 0.024 mPa·s
surface tension liquid-gas (423.15 K): 16.69 ± 0.25 mN/m
viscosity (423.15 K): 0.5351 ± 0.02 mPa·s
surface tension liquid-gas (448.15 K): 15.09 ± 0.14 mN/m
viscosity (448.15 K): 0.4256 ± 0.018 mPa·s
surface tension liquid-gas (473.15 K): 13.26 ± 0.21 mN/m
viscosity (473.15 K): 0.344 ± 0.016 mPa·s
surface tension liquid-gas (498.15 K): 11.46 ± 0.19 mN/m
viscosity (498.15 K): 0.2862 ± 0.015 mPa·s
surface tension liquid-gas (523.15 K): 9.72 ± 0.28 mN/m
viscosity (523.15 K): 0.236 ± 0.013 mPa·s
surface tension liquid-gas (548.15 K): 8.25 ± 0.22 mN/m
viscosity (548.15 K): 0.1937 ± 0.013 mPa·s
surface tension liquid-gas (573.15 K): 7 ± 0.29 mN/m
viscosity (573.15 K): 0.1705 ± 0.012 mPa·s

From the NIST ThermoML archive (doi:10.1021/acs.jced.9b00525)
